Reference: publication doi:10.1101/2020.06.11.145995v1 (biorxiv, 2020)
Like-named read-outs stand apart in the source and are kept apart here.

What was measured:
Assay in all cases: biochemical
[1] = target: ACVR1 (Homo sapiens, UniProt Q04771)
[2] = target: ACVR2A (Homo sapiens, UniProt P27037)
[3] = target: ASK2 (Homo sapiens, UniProt O95382)
[4] = target: AURKB (Homo sapiens, UniProt Q96GD4)
[5] = target: CAMK4 (Homo sapiens, UniProt Q16566)
[6] = target: CDC2L1 (Homo sapiens, UniProt P21127)
[7] = target: CSNK1A1 (Homo sapiens, UniProt P48729)
[8] = target: CSNK1G1 (Homo sapiens, UniProt Q9HCP0)
[9] = target: DAPK3 (Homo sapiens, UniProt O43293)
[10] = target: DCAMKL3 (Homo sapiens, UniProt Q9C098)
[11] = target: DYRK2 (Homo sapiens, UniProt Q92630)
[12] = target: FGR (Homo sapiens, UniProt P09769)
[13] = target: FLT3(D835Y) (Homo sapiens, UniProt P36888, D835Y)
[14] = target: GAK (Homo sapiens, UniProt O14976)
[15] = target: HUNK (Homo sapiens, UniProt P57058)
[16] = target: INSR (Homo sapiens, UniProt P06213)
[17] = target: IRAK1 (Homo sapiens, UniProt P51617)
[18] = target: JNK1 (Homo sapiens, UniProt P45983)
[19] = target: JNK2 (Homo sapiens, UniProt P45984)
[20] = target: KIT(D816H) (Homo sapiens, UniProt P10721, D816H)
[21] = target: LRRK2(G2019S) (Homo sapiens, UniProt Q5S007, G2019S)
[22] = target: MAP4K2 (Homo sapiens, UniProt Q12851)
[23] = target: MARK1 (Homo sapiens, UniProt Q9P0L2)
[24] = target: MARK3 (Homo sapiens, UniProt P27448)
[25] = target: MEK4 (Homo sapiens, UniProt P45985)
[26] = target: MET(M1250T) (Homo sapiens, UniProt P08581, M1250T)
[27] = target: MRCKA (Homo sapiens, UniProt Q5VT25)
[28] = target: MST1 (Homo sapiens, UniProt Q13043)
[29] = target: MYLK (Homo sapiens, UniProt Q15746)
[30] = read-out: CPT-1-70-1 (1uM) % control
[31] = read-out: HYJ-2-002-1 (1uM) % control

Sequence of LRRK2(G2019S) (Q5S007 whole entry G2019S): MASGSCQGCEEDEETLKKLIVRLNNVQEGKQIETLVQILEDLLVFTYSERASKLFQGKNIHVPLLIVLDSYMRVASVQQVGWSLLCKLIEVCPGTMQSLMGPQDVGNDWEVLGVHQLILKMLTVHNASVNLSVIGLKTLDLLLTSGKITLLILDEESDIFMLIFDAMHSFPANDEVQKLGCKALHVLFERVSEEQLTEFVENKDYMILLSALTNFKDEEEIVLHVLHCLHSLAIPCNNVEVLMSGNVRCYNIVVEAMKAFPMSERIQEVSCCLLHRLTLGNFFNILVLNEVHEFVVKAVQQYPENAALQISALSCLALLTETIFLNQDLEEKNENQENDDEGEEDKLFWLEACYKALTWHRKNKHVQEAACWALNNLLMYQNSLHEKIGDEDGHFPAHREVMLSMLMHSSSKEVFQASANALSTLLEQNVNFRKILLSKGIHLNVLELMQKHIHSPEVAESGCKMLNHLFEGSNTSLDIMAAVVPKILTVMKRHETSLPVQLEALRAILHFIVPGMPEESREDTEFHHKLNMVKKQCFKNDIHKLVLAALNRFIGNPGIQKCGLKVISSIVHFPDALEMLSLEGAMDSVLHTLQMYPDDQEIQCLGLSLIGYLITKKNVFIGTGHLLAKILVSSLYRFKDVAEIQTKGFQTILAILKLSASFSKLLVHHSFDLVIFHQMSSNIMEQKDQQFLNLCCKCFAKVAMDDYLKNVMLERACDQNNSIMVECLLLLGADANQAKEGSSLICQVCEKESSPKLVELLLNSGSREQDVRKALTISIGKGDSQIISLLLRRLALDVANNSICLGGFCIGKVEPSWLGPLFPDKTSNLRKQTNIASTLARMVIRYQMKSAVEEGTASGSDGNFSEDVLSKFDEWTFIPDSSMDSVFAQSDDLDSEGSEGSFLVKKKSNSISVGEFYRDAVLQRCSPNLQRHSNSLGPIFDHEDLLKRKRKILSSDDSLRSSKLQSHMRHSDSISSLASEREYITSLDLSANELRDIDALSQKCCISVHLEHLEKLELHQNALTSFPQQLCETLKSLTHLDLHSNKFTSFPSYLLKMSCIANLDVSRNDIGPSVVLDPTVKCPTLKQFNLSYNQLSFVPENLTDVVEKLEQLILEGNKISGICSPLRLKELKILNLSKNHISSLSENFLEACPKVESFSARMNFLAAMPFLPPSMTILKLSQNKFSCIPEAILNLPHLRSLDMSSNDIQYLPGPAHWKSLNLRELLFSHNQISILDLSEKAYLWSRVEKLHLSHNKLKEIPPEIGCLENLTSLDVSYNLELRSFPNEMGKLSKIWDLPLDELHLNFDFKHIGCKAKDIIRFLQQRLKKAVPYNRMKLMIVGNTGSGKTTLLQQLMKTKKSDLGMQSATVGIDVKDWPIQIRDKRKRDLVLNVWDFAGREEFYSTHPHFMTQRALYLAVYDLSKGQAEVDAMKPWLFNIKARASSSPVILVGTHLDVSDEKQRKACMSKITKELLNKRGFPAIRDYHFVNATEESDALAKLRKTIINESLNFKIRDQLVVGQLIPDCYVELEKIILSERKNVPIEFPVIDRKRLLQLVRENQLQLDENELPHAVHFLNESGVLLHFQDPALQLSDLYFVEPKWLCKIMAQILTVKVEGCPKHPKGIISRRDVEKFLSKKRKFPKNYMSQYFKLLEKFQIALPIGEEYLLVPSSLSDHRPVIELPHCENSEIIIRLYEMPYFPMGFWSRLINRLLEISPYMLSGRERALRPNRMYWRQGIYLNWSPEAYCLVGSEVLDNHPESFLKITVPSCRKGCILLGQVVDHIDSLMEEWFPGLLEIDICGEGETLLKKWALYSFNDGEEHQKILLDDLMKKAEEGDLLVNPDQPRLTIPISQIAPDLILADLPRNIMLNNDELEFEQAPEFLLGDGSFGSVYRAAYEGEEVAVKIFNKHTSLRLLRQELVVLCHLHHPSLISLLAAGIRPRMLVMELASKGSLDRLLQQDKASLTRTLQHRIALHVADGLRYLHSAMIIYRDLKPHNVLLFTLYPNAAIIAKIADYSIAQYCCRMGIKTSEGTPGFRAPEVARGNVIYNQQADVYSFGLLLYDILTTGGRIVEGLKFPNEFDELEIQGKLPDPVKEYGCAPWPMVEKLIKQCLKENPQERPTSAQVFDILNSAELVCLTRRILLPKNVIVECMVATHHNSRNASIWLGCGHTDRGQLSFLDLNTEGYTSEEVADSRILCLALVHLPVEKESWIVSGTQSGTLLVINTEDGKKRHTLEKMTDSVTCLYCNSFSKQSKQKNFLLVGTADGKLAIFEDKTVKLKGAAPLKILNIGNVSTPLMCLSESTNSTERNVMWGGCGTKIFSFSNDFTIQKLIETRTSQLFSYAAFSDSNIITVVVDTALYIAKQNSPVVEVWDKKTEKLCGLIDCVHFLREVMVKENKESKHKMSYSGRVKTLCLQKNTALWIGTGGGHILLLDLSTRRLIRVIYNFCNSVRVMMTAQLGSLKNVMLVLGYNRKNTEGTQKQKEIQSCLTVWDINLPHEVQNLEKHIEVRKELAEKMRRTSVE
Sequence of ASK2 (O95382 whole entry): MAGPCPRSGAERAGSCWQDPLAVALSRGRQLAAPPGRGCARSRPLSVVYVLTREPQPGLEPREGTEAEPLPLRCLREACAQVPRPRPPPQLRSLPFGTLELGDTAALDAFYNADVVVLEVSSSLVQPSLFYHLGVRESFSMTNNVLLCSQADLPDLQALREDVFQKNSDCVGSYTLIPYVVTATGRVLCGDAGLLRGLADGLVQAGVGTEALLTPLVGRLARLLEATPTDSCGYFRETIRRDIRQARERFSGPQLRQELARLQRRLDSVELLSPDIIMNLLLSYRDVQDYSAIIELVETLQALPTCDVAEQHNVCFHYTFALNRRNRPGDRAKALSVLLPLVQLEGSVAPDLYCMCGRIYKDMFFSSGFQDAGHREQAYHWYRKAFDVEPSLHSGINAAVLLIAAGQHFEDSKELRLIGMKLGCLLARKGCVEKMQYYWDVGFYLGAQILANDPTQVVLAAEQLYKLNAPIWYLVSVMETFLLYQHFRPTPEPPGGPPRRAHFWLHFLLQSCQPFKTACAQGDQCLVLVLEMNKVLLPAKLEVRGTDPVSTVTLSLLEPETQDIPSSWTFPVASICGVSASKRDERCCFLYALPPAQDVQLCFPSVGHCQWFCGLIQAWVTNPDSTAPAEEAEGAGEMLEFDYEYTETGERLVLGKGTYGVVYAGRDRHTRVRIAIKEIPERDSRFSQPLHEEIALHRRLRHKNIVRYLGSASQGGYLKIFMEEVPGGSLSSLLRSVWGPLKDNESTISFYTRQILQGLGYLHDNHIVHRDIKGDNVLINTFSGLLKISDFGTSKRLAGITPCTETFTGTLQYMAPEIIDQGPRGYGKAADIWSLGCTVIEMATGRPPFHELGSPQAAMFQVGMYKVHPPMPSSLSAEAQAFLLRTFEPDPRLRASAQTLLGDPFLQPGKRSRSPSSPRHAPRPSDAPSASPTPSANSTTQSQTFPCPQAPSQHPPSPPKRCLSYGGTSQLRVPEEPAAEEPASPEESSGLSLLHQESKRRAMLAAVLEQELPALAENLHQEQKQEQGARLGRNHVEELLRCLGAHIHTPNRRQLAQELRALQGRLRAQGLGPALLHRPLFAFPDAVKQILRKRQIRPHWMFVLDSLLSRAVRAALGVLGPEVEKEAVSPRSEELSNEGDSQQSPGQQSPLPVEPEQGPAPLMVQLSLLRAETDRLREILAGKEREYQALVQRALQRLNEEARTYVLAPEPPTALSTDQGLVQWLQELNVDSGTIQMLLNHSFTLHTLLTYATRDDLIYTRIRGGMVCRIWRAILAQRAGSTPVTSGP
Sequence of DCAMKL3 (Q9C098 whole entry): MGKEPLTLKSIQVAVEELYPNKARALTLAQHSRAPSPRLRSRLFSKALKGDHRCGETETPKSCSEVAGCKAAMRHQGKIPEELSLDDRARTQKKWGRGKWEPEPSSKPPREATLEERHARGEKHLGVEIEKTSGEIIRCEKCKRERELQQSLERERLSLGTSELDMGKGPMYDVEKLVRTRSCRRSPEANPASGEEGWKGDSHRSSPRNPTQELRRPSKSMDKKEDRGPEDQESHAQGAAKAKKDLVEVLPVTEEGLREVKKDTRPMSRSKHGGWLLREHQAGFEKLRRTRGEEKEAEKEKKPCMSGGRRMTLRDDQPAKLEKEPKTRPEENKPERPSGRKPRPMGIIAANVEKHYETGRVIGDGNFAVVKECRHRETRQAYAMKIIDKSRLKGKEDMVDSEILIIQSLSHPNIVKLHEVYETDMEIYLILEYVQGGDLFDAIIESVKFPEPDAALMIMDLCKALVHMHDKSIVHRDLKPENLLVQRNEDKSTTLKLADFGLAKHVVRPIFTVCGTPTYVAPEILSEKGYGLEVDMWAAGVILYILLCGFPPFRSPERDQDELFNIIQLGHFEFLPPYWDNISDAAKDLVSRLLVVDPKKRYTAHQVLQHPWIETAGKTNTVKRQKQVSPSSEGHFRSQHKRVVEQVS
Sequence of JNK1 (P45983 whole entry): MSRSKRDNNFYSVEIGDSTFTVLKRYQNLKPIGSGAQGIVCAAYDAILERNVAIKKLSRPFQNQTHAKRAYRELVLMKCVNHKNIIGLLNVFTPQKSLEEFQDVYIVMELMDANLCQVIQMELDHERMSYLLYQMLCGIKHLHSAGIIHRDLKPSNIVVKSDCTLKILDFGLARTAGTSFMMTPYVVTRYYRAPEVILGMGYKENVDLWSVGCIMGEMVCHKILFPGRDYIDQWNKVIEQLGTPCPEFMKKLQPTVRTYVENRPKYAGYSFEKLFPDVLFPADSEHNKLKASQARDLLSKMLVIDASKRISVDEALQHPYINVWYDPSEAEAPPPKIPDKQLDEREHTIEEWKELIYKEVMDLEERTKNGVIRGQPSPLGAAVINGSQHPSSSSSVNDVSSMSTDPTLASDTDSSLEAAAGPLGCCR

Compound `CN1CCN(c2ccc(Nc3nc(Oc4ccc(NC(=O)CCl)cc4)c4cc[nH]c4n3)cc2)CC1` [CPT1-70-1] has a remaining activity at 1 µM [1, 30] of 100%, a remaining activity at 1 µM [2, 30] of 100% and a remaining activity at 1 µM [3, 30] of 100%. The remaining activity at 1 µM [4, 30] was 61%, the remaining activity at 1 µM [5, 30] was 100% and the remaining activity at 1 µM [6, 30] was 100%. It also gave a remaining activity at 1 µM [7, 30] of 55%, a remaining activity at 1 µM [8, 30] of 18% and a remaining activity at 1 µM [9, 30] of 59%. For the same compound, the remaining activity at 1 µM [10, 30] was 56%, the remaining activity at 1 µM [11, 30] was 100% and the remaining activity at 1 µM [12, 30] was 4.2%. For the same compound, the remaining activity at 1 µM [13, 30] was 0.35%, the remaining activity at 1 µM [14, 30] was 7.9% and the remaining activity at 1 µM [15, 30] was 78%. The remaining activity at 1 µM [16, 30] was 17%, the remaining activity at 1 µM [17, 30] was 53% and the remaining activity at 1 µM [18, 30] was 2.4%. The remaining activity at 1 µM [19, 30] was 13%, the remaining activity at 1 µM [20, 30] was 83% and the remaining activity at 1 µM [21, 30] was 2.6%. For the same compound, the remaining activity at 1 µM [22, 30] was 25%, the remaining activity at 1 µM [23, 30] was 2.1% and the remaining activity at 1 µM [24, 30] was 9.2%. It also gave a remaining activity at 1 µM [25, 30] of 35%, a remaining activity at 1 µM [26, 30] of 39% and a remaining activity at 1 µM [27, 30] of 100%. The remaining activity at 1 µM [28, 30] was 100% and the remaining activity at 1 µM [29, 30] was 100%.
`CCN1CCN(Cc2ccc(NC(=O)c3ccc(C)c(CCc4cnc5[nH]ccc5c4OC)c3)cc2C(F)(F)F)CC1` [HYJ-2-002-1] was tested, and the remaining activity at 1 µM [1, 31] was 100%, the remaining activity at 1 µM [2, 31] was 100% and the remaining activity at 1 µM [3, 31] was 100%. The remaining activity at 1 µM [4, 31] was 43%, the remaining activity at 1 µM [5, 31] was 100% and the remaining activity at 1 µM [6, 31] was 88%. The remaining activity at 1 µM [7, 31] was 100%, the remaining activity at 1 µM [8, 31] was 93% and the remaining activity at 1 µM [9, 31] was 100%. It also gave a remaining activity at 1 µM [10, 31] of 84%, a remaining activity at 1 µM [11, 31] of 96% and a remaining activity at 1 µM [12, 31] of 0.75%. The remaining activity at 1 µM [13, 31] was 38%, the remaining activity at 1 µM [14, 31] was 4.8% and the remaining activity at 1 µM [15, 31] was 79%. For the same compound, the remaining activity at 1 µM [16, 31] was 92%, the remaining activity at 1 µM [17, 31] was 62% and the remaining activity at 1 µM [18, 31] was 72%. For the same compound, the remaining activity at 1 µM [19, 31] was 1.8%, the remaining activity at 1 µM [20, 31] was 43% and the remaining activity at 1 µM [21, 31] was 83%. For the same compound, the remaining activity at 1 µM [22, 31] was 4.6%, the remaining activity at 1 µM [23, 31] was 100% and the remaining activity at 1 µM [24, 31] was 100%. For the same compound, the remaining activity at 1 µM [25, 31] was 100%, the remaining activity at 1 µM [26, 31] was 61% and the remaining activity at 1 µM [27, 31] was 100%. It also gave a remaining activity at 1 µM [28, 31] of 89% and a remaining activity at 1 µM [29, 31] of 100%.
